Laboratory results as given in patent US20090099020A1, “Triazole-Based Fungicidal Mixtures” (BADF Aktiengesellschaft, priority 2005, published 2009).

System: Botrytis cinerea
Experiment: Activity against the gray mold pathogen Botrytis cinerea in the microtiter test (Botrci)
Assay type: cell-based
Conditions: single active, day 7 after inoculation
Protocol: The expected efficacies of active compound combinations were determined using Colby's formula (Colby, S. R. “Calculating synergistic and antagonistic responses of herbicide combinations”, Weeds, 15, 20-22, 1967) and compared with the observed efficacies.
E=x+y−x·y/100 • E expected efficacy, expressed in % of the untreated control, when using the mixture of the active compounds A and B at the concentrations a and b • x efficacy, expressed in % of the untreated control, when using the active compound A at the concentration a • y efficacy, expressed in % of the untreated control, when using the active compound B at the concentration b
The active compounds were formulated separately as a stock solution having a concentration of 10 000 ppm in DMSO.
The active compound epoxiconazole was used as a commercial formulation.
Use example No. 1—Activity against the gray mold pathogen Botrytis cinerea in the microtiter test (Botrci)
The stock solution is pipetted onto a microtiter plate (MTP) and diluted to the stated active compound concentration using a malt-based aqueous nutrient medium for fungi. An aqueous spore suspension of Botrytis cinerea was then added. The plates were placed in a water vapor-saturated chamber at temperatures of 18° C. Using an absorption photometer, the MTPs were measured at 405 nm on day 7 after the inoculation. The measured parameters were compared to the growth of the active compound-free control variant and the fungus- and active compound-free blank value to determine the relative growth in % of the pathogens in the individual active compounds.
The visually determined values for the percentage of infected leaf area were initially converted into a mean value and then converted into efficacies in % of the untreated control. An efficacy of 0 means the same degree of infection as in the untreated control, an efficacy of 100 means 0% infection. The expected efficacies for active compound combinations were determined using Colby's formula (Colby, S. R. (Calculating synergistic and antagonistic responses of herbicide combinations”, Weeds, 15, pp. 20-22, 1967) and compared to the observed efficacies.

| SMILES | Observed effect (%) (0.016 ppm) | Observed effect (%) (0.063 ppm) | Observed effect (%) (0.004 ppm) | Observed effect (%) (0.25 ppm) |
| --- | --- | --- | --- | --- |
| Fc1ccc(C2(Cn3cncn3)OC2c2ccccc2Cl)cc1 (stereo not shown) [Epoxiconazole, epoxiconazole] | 15% | 48% |  |  |
| O=c1c2cc(F)ccc2nc(-n2cncn2)n1-c1ccc(Cl)cc1Cl [Fluquinconazole, fluquinconazole] |  |  | 0% | 0% |
